Laboratory results as given in paper PMC5836741 (Journal of medicinal chemistry, 2017).

Tests used:
[1] = target: T1, M2R (Homo sapiens, UniProt P08172); test: Whole cell radioligand binding, CHO cells, M2R; conditions: M2 vs M1
T1 sequence (P08172 1-466): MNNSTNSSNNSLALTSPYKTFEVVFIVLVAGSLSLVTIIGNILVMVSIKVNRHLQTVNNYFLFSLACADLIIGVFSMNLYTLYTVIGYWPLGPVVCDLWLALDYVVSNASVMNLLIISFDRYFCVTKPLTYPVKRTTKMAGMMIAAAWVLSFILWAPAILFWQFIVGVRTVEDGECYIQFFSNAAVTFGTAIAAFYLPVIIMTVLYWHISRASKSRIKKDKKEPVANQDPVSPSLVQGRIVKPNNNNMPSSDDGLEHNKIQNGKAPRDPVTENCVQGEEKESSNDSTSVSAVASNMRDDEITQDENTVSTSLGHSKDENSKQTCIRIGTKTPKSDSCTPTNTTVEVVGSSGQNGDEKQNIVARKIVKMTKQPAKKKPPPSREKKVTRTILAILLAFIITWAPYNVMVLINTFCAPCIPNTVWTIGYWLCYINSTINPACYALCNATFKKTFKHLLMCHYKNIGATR

[2] = target: T1, M2R; test: β-Arrestin recruitment assay, HEK cells, M2-TEV-tTA; format: cell-based; conditions: versus acetylcholine as reference, against the cAMP assay
[3] = target: hM3 mAChR (Homo sapiens, UniProt P20309); test: IP-One accumulation assay, CHO cells, M3R; format: cell-based; conditions: read-out: IP accumulation Emax M3R
[4] = target: M3R (Homo sapiens, UniProt P20309); test: ERK1/2 phosphorylation; conditions: CHO, read-out: ERK1/2 phosphorylation Emax M3R
M3R, sequence (P20309 whole entry): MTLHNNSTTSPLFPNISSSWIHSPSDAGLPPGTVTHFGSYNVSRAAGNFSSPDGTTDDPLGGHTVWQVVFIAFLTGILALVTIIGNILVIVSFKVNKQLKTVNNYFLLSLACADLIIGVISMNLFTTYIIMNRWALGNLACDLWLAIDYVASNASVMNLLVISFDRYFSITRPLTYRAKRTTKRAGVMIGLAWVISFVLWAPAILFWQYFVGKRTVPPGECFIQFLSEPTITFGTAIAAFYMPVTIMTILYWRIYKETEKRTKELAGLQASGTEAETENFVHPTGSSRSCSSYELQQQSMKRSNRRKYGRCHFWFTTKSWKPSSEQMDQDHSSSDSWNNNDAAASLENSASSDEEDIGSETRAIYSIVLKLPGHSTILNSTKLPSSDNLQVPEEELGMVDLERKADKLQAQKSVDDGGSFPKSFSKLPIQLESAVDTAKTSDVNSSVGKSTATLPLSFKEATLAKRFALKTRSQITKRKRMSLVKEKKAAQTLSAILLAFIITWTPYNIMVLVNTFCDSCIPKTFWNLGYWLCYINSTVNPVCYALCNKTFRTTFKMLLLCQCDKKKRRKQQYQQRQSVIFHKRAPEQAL

hM3 mAChR, sequence (P20309 whole entry): as above

| SMILES | selectivity over M1 receptor [1] [fold] | bias toward arrestin [2] [fold] | Emax [3] [%] | Emax [4] [%] |
| --- | --- | --- | --- | --- |
| C[N+](C)(C)CCc1ccc2c(c1)OCC2.O=C[O-] [Compound 28] | 4 | 20 | – | – |
| CC(=O)OCC[N+](C)(C)C [acetylcholine] | – | – | 100 | 100 |
